The values that follow come from patent publication US20050271588A1, “Liposome targeting of matrix metalloproteinase inhibitors” (priority 2001, published 2005).

SMILES strings stand for the structures. Positions of bridges follow the written chain, without caps; N, C: chain ends. Residues, ends and D or L forms follow the SMILES beside them.

Series [1] concerns endothelial and tumor cell migration. Conditions: cited from earlier work.
The nature of series [2]: Penetration of peptides into lipid monolayers (surface pressure). Particulars: eggPC monolayer, peptide 200 μM. The format is physicochemical. The procedure: Interaction of peptides with lipid monolayers. Penetration of peptides into mono-molecular lipid films was measured using magnetically stirred circular wells (subphase volume 400 μl). Surface pressure (π) was monitored with a Wilhelmy wire attached to a microbalance (μ TroughS, Kibron Inc., Helsinki, Finland) connected to a Pentium PC. Lipids were spread on the air-buffer (PBS, pH 7) interface in chloroform (approx. one mg/ml) to different initial surface pressures (π0) and were allowed to equilibrate for 15 min before the addition of the indicated peptides (4 μ1,10 mg/ml in H2O and CWL in DMSO) into the subphase. The increment in π from the initial surface pressures (π0) after the addition of peptide was complete in approximately 20 min and the difference between π0 and the value observed after binding of the peptide into the film was taken as Δπ. All measurements were performed at ambient temperature (˜+24° C.). The data are represented as Δπ vs. […] (Brockman, 1999).

The next series relates to U937 cells. Kind of series: Uptake of liposome-encapsulated rhodamine B by U937 cells. The format is cell-based. On the procedure:
(§1) In another series of experiments the water-soluble fluorescent marker rhodamine B was encapsulated into liposomes and its uptake by cells was measured. Samples for rhodamine B uptake were prepared by mixing 60 μl of POPC/POPE (80/20, mol/mol, one mM) liposomes containing 10 μM rhodamine B to 300 μl of DMEM medium supplemented with 10% fetal bovine serum, Glutamax I, penicillin 100 U/ml and streptomycin 0.1 mg/ml. Peptides were then added to obtain a final concentration of […]. Ten μl (10^5 cells) of medium containing the indicated cells were combined with the LUVs. After an incubation for 15 min at 37° C. or +4° C. liposomes not bound to the cells were removed from 96-well plates by rinsing three times with cold PBS. The +4° C. temperature served as a control for non-endocytotic liposome uptake by cells (Oess and Hildt, 2000). The relative amount of rhodamine B associated with the cells was determined using microplate reader with excitation at 535 nm and emission at 595 nm.
(§2) We also preincubated cells with phorbol ester (TPA) (50 nM). Preincubation times varied from 15 to 75 min. Treatment of cells by phorbol ester (TPA) increases both expression and secretion of MMP-9 (Toth et al., 1997). Results are presented as RFI=I/I0, where RFI is relative fluorescence intensity, I0 is the emission intensity for the control, 2 μM rhodamine B in LUVs without the peptides, and I is the rhodamine emission for the peptide-liposome complexes taken up by the cells. […] M-17 inhibits the binding of MMP-9 to the substrate and this inhibition is expected to be concentration dependent. It is not known if rabbit polyclonal antibody blocks human MMP-2 (Murphy et al., 1994). Final concentrations of the indicated peptide, Adriamycin, antibodies and liposomes were 85 μM, 0.2 mM, 20 μg/ml, and 0.4 μM, respectively.
Cell cultures and fluorescence microscopy. U937 (ECACC 85011440), HT 1080 (ECACC 85111505), and CHO (ECACC 85050302) cells were cultured in RPMI or DMEM medium supplemented with 10% fetal bovine serum, Glutamax I, penicillin (100 U/ml), and streptomycin (0.1 mg/ml). Uptake of rhodamine B containing liposomes by the cultured cells was verified by fluorescence microscopy. An inverted fluorescence microscope (Zeiss IM 35) equipped with Nikon extra long working distance objectives (20×) and (40×) were used. Samples were prepared as described for the rhodamine uptake assay, with slight modifications. Accordingly, instead of washing, U937, HT 1080, and CHO cells with the rhodamine-containing liposomes and in cell culture medium were transferred into Nunclon 48 plate wells. Excitation and emission wavelengths were selected by suitable bandpass filters (Melles-Griot) transmitting in the range 535 nm and >600 nm, respectively. Fluorescence images were viewed with a Peltier-cooled digital camera (C4742-95, Hamamatsu, Japan) connected to a computer and operated by software (Hipic 5.0) provided by the instrument manufacturer.

In the next series the test system is U937 leukemia cells. Description: Association of DPPRho-labelled liposomes with cells. It counts as cell-based. Conditions: U937, 5 min. On the procedure:
Assays for liposome uptake by cells. In order to study the effects of the different peptides on the cellular uptake of liposomes, rhodamine-labelled phospholipid analog (DPPRho) was incorporated into liposomes as a tracer, to yield a composition POPC/POPE/DPPRho (80:19:1, mol/mol). The indicated peptides were mixed with LUVs and subsequently added to cells cultured in microtiter well plates. After an incubation for 5 min at 38° C. liposomes not bound to the cells were removed by rinsing the cells three times with cold PBS. The relative amount of DPPRho associated with the cells was determined using Tecan Spectrafluor Plus microplate reader (Tecan, Hombrechtigon, Switzerland) with excitation at 535 nm and emission at 595 nm.

In series [3] the test system is HT1080 fibrosarcoma cells. Kind of series: Uptake of liposome-encapsulated rhodamine B by HT1080 cells. It counts as cell-based, human. Particulars: for Enhanced liposome uptake: HT1080. The procedure:
as §1
as §2, with “It is not known if rabbit polyclonal antibody blocks human MMP-2 (Murphy et al., 1994). Final concentrations of the indicated peptide, Adriamycin, antibodies and liposomes were 85 μM, 0.2 mM, 20 μg/ml, and 0.4 μM, respectively.” left out
Cell cultures and fluorescence microscopy. […] Uptake of rhodamine B containing liposomes by the cultured cells was verified by fluorescence microscopy. An inverted fluorescence microscope (Zeiss IM 35) equipped with Nikon extra long working distance objectives (20×) and (40×) were used. […] Fluorescence images were viewed with a Peltier-cooled digital camera (C4742-95, Hamamatsu, Japan) connected to a computer and operated by software (Hipic 5.0) provided by the instrument manufacturer.

A further series deals with T1, MMP-9 (Homo sapiens, UniProt P14780).
T1 construct: made in house
Description: Gelatinase assay with fluorogenic peptide substrate. It counts as biochemical. Conditions: fluorogenic substrate; text says 8 μM 'in both assays'; liposomes 200 μM POPC/POPE. On the procedure:
The activity of MMP-9 was measured also using the fluorogenic peptide substrate MCA-Pro-Leu-Ala-Nva-Dpa-Ala-Arg (Calbiochem, San Diego, Calif., USA). More specifically, 50 ng of MMP-9 was preincubated in PBS for 30 min at RT in the absence or presence of CTT or its liposome complex. Subsequently, the fluorogenic substrate was added to a final concentration of 0.1 mM and the incubation was continued at 37° C. for 15 min, whereafter fluorescence intensities were measured with exitation at 340 nm and emission at 390 nm in a microtiter plate reader.

T1 sequence (P14780 94-707): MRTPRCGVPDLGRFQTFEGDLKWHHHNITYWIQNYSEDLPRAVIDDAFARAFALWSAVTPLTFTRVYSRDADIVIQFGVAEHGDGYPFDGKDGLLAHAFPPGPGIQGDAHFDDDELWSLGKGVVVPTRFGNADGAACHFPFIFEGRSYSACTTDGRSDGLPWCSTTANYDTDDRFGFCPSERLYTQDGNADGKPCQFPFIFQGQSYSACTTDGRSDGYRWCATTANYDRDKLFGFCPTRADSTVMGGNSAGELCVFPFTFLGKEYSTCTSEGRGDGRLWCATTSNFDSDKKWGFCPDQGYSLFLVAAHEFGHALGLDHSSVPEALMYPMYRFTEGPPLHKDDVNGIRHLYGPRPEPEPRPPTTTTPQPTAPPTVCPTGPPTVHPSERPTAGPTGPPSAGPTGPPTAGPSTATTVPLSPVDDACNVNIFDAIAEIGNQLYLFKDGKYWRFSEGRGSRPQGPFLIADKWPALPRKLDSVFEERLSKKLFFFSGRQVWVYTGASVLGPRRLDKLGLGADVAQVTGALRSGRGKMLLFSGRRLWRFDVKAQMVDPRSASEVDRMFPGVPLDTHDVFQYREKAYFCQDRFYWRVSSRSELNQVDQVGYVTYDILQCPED

What is called IC50 is the midpoint of a concentration-inhibition curve. Higher therefore signals weaker potency. Consider `CC(C)C[C@@H]1NC(=O)[C@H]([C@@H](C)O)NC(=O)[C@H](Cc2ccccc2)NC(=O)CNC(=O)[C@H](Cc2c[nH]c3ccccc23)NC(=O)[C@H](Cc2c[nH]cn2)NC(=O)[C@H]([C@@H](C)O)NC(=O)[C@H]([C@@H](C)O)NC(=O)[C@@H](N)CSSC[C@@H](C(=O)O)NC1=O` [CTT] (H-CTTHWGFTLC-OH; disulfide 1-10; N-terminus and C-terminus assumed), for which, in series [1], the “Endothelial and tumor cell migration in vitro” value was “inhibited”. The “Initial monolayer packing pressure above which membrane penetration was abolished” value in series [2] turned out to be 38 mN/m. Further, the “Enhancement of uptake of liposome-encapsulated rhodamine vs liposomes lacking peptide” value in the series with U937 cells (U937, fluorescence plate-reader) amounted to 3.6 fold. For the same molecule, the “Rhodamine intake, fluorescence microscopy” value with U937 cells (U937, liposomes with vs without CTT) is recorded as “enhanced”; in series [3] (HT 1080, liposomes with vs without CTT), “enhanced”. The “Uptake of free rhodamine B” value in the series on U937 cells (no liposomes) is listed as “did not promote”. For the same molecule, the “Increase of DPPRho marker bound to cells with peptide vs without” value in the series on U937 leukemia cells was “approx. 3.7 fold”. Also, the Enhanced liposome uptake result is “not at 4 °C” in series [3] (4° C.) and “evident only at 37 °C” in series [3] (37° C.). The half-maximal inhibitory concentration (IC50) against MMP-9 worked out at 8 µM.
